Measured values published in PMC8610083 (Clinical cancer research : an official journal of the …, 2021).

Legend:
[1] = Ex vivo biodistribution in 4T1-Luc allograft mouse model
γ-secretase [2] = target: T1, γ-secretase (Homo sapiens, UniProt P49768); assay: In vitro γ-secretase activity assay; format: biochemical
γ-secretase [3] = target: γ-secretase (Mus musculus, UniProt P49769); assay: PET imaging of 4T1-Luc tumors in BALB/c mice, baseline and blocking; format: in vivo; conditions: co-injection 0.2 mg/kg to 30 mg/kg, 2h post injection
γ-secretase [4] = target: T1, γ-secretase; assay: Membrane-based radioligand binding assay with [^131I]-PN67; conditions: for Blocking of PN67 binding to γ-secretase: Hela cell membrane, [^131I]-PN67 radioligand
[5] = biodistribution, post injection

IC50 (γ-secretase [2]) [nM] | Ki (γ-secretase [4]) [nM] | SMILES | Blocking of PN67 binding to γ-secretase (γ-secretase [4]) | also measured
16.2 | 13.6 | CC(C)[C@H](O)C(=O)N[C@@H](C)C(=O)N[C@@H]1C(=O)N(C)CCc2ccccc21 [compound 1, Semagacestat] | – | Blocking of 4T1 tumor uptake of [^124I]-PN67 (biodistribution) ([1]; co-administered 30mg/kg with the tracer, 2h time point): significant reduction of tracer uptake; Blocking of [^124I]-PN67 PET signal in 4T1-Luc tumor (γ-secretase [3]): blocked in a dose-dependent manner
– | – | O=C(O)CC[C@H]1CC[C@@](c2cc(F)ccc2F)(S(=O)(=O)c2ccc(Cl)cc2)CC1 [MK-0752] | effectively block PN67 binding to γ-secretase | –
3.5 | 4.3 | CC(C)[C@H](O)C(=O)N[C@@H](C)C(=O)N[C@@H]1C(=O)N(C)CCc2ccc(I)cc21 [compound 2, (S)-2-hydroxy-N-((S)-1-(((S)-8-iodo-3-methyl-2-oxo-2,3,4,5-tetrahydro-1H-benzo[d]azepin-1-yl)amino)-1-oxopropan-2-yl)-3-methylbutanamide] | – | Half-life in mouse models ([1]; based on ex vivo biodistribution and PET imaging): about 2 hours; Time of maximal radioactivity in large intestine [1, 5]: 2 h; Time of maximal radioactivity in liver [1, 5]: 0.5 h; Time of maximal radioactivity in small intestine [1, 5]: 1 h
– | – | CC(C)(C(=O)NCC(F)(F)C(F)(F)F)C(=O)N[C@@H]1C(=O)Nc2ccccc2-c2ccccc21 [RO-4929097] | effectively block PN67 binding to γ-secretase | –
– | – | CCC[C@H](N[C@H]1CCc2cc(F)cc(F)c2C1)C(=O)Nc1cn(C(C)(C)CNCC(C)(C)C)cn1 [PF-03084014] | effectively block PN67 binding to γ-secretase | –
